# Literature values in publication PMC7347157 (Chemical communications (Cambridge, England), 2019).
# Conditions: unlabeled dienophile
molecule,measurement,value
OC1CC/C=C/CCC1 (stereo not drawn) [5-hydroxy-trans-cyclooctene],log P,1.11
trans-5-oxocene [compound 4],log P,0.51
